“Also recorded” adds a separate entry of the source.
Experiments:
[1] = system: Arabidopsis WT and yucca mutants; assay: Auxin transport block by NPA in growth medium, club root development; assay type: in vivo, Arabidopsis thaliana
From the text: It was also discovered that auxin transport in yucca was blocked by application of transport inhibitor naphthylthalamic acid (NPA), resulting in yucca mutants having a giant root, called a “club root” due to its thick, short appearance. This club root was substantially thicker than the regular yucca root, which is already thicker than the WT root. […] The club root produced by blocking auxin transport in yucca mutants may provide an important tool for studying root growth and development.

[2] = system: yucca mutant; assay type: in vivo, Arabidopsis thaliana
[3] = system: Arabidopsis WT and yucca mutants; assay type: in vivo, Arabidopsis thaliana; conditions: for sensitivity of yucca mutants to tryptophan analogs: yucca mutants compared with normal toxicity to plants
Description: Enhanced expression of the YUCCA gene overproduces auxin. […] Massive root growth was observed when yucca explants grew in Murashige and Skoog (MS) media. Callus was induced by adding cytokinin, and young yucca plants that are regenerated in MS media containing cytokinin. A GUS reporter gene controlled by an auxin responsive element was expressed at much higher level in yucca. […] In addition, YUCCA appears to be involved in tryptophan-dependent auxin synthesis. […] In the presence of 100 μM 5-methyl tryptophan, WT plant material died while yucca survived.

[4] = target: T1, recombinant YUCCA gene product (SEQ ID NO. 2) (Arabidopsis thaliana, UniProt Q9SZY8); assay: FMO activity assay of recombinant YUCCA gene product with tryptamine (TLC, mass spectroscopy); assay type: biochemical; conditions: 2 mM tryptamine, 1 mM NADP+, glucose-6-phosphate, glucose-6-phosphate dehydrogenase, 37° C.
T1 construct: 2, was recovered from the E. coli overexpression system; made in house; host or cells: E. coli (vector pMalC2)
T1 sequence (Q9SZY8 1-414): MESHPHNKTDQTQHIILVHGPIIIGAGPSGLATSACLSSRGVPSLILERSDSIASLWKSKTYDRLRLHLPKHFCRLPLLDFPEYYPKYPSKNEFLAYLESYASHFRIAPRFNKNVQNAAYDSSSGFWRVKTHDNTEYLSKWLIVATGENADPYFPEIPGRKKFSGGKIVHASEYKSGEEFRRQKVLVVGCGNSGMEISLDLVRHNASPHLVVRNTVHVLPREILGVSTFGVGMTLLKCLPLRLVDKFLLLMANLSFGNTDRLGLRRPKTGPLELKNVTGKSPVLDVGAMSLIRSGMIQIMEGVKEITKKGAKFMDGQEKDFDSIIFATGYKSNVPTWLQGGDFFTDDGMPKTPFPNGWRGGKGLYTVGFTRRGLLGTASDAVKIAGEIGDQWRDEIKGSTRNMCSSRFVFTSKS
From the text: Enzymatic activity of the YUCCA gene product. In one experiment, the YUCCA gene was transformed into an E. coli overexpression vector and the recombinant YUCCA gene product, a polypeptide having the amino acid sequence of SEQ ID NO. 2, was recovered from the E. coli overexpression system. […] Thus, the amino acid sequence of SEQ ID NO: 2 can be used to metabolize tryptamine, whether endogenous or exogenous, as well as to generate N-hydroxyl tryptamine.
Effect of YUCCA overexpression in E. coli on detectable FMO activity. To test the enzymatic activity of the YUCCA gene product, YUCCA (SEQ ID NO. 1) was transformed into an E. coli overexpression vector pMalC2 and the recombinant YUCCA gene product was recovered, using the method of Brunelle et al., (Drug Metab Dispos (1997) 25:1001). For activity assays, the recombinant YUCCA gene product was incubated with 2 mM tryptamine, 1 mM NADP^+, 1 mM glucose-6-phosphate, and glucose-6-phosphate dehydrogenase at 37° C. Reactions were stopped by adding an equal volume of methanol. Substrate and products were separated by thin-layer-chromatography (TLC) with CH2CL2/methanol/TEA (75:20:5). The product was eluted from TLC plates and mass spectroscopy was performed to determine the molecular mass of the product.

`O=C(O)c1ccccc1C(=O)Nc1cccc2ccccc12` [NPA, naphthylthalamic acid] was tested, and the “club root development in wild type” value ([1]; Wild type (WT) Arabidopsis) was “did not develop a club root”, the “club root development in yucca mutants” value ([1]; 50 μM in the growth medium) was “multiple club roots” and the “club root development in yucca mutants” value ([1]; 100 μM in the growth medium) was “a single club root”.

`NC1(C(=O)O)CC1` [ACC, 1-aminocyclopropane-1-carboxylate] was tested, and the “effect on yucca cotyledon” value ([2]; 5 μM) was “did not change the appearance of the yucca cotyledon” and the “effect on yucca hypocotyl” value ([2]; 5 μM) was “suppressed the elongated yucca hypocotyl”.

For `Cc1ccc2[nH]cc(C[C@H](N)C(=O)O)c2c1` [5-methyl tryptophan], the “survival of WT plant material” value ([3]; WT, in the presence of 100 μM) was “died”, the survival of yucca ([3]; yucca mutant, in the presence of 100 μM) was “survived” and the “sensitivity of yucca mutants to tryptophan analogs” value [3] was “less sensitive”.

With `NCCc1c[nH]c2ccccc12` [tryptamine] the “substrate conversion by recombinant YUCCA gene product” value [4] was “able to convert tryptamine to N-hydroxyl tryptamine; also recorded: use tryptamine as a substrate to generate N-hydroxyl tryptamine”.

`C=C` [Ethylene] was tested, and the “effect on the yucca mutant” value ([2]; ethylene treatment) was “little effect”.

For `N[C@@H](Cc1c[nH]c2ccc(F)cc12)C(=O)O` [5-fluoro-tryptophan], the “sensitivity of yucca mutants to tryptophan analogs” value [3] was “less sensitive”.

Source: patent publication US6455760B1, “Expression of flavin-containing monoxygenases in plants” (The Salk Institute of Biological Studies, priority 2000, dated 2002)
